Results from US20210121437A1, “[…] AGENTS […] FLAVONOID DERIVATIVES TARGETING KINASES, SIRTUINS AND ONCOGENIC AGENTS FOR THE TREATMENT OF MULTIPLE MYELOMA, LYMPHOMA, AND […]” (priority 2015, published 2021).

Experiments:
[1] = tested on: Normal Bone marrow; assay: anticancer cell proliferation assay (WST-1); assay type: cell-based; conditions: Table 4
Protocol: (§1) Bioactivity of the above-described compounds has been verified by an anticancer cell proliferation assay using the WST-1 (4-[3-(4-iodophenyl)-2-(4-nitrophenyl)-2H-5-tetrazoliol-1, 3-benzene disulfonate) colorimetric assay by Roche Life Sciences®. Anticancer activity was tested against several standard cancer cell lines including brain, breast, Kaposi sarcoma, leukemia, lung, melanoma, tenosynovial giant cell tumor, ovarian, pancreatic, colon and prostate cancer. Cells were trypsinized and plated into 96 well plates in 50 μl of media and incubated overnight. The next day approximately 18 hours after plating, 50 μl of media containing the required flavonoid-based pharmaceutical composition was added per well. Cells were plated at a density so that 72 hours post drug addition, the cells will be in log phase (500-2000 cells/well). The compounds and extracts were solubilized in Dimethyl sulfoxide (DMSO). The cells are allowed to proliferate for 72 hours 37° C. in humidified atmosphere of 5% CO2. The experiment is terminated using WST-1 (Roche®) 10 μl per well and absorbance is read at 450 nm/690 nm. The effect of drugs on growth is assessed as percent of cell viability. The IC50 values were determined from the extract dose versus control growth curves using Graphpad Prism® software. All experiments were carried out in duplicate and the mean results determined.

[2] = tested on: MV4-11 (Leukemia); assay: anticancer cell proliferation assay (WST-1); assay type: cell-based; conditions: Table 4; read-out: IC50 Acute Myeloid Leukemia cell lines MV4-11
Protocol: as §1, with “Anticancer” for “Bioactivity of the above-described compounds has been verified by an anticancer cell proliferation assay using the WST-1 (4-[3-(4-iodophenyl)-2-(4-nitrophenyl)-2H-5-tetrazoliol-1, 3-benzene disulfonate) colorimetric assay by Roche Life Sciences®. Anticancer”

[3] = tested on: THP-1 Acute Myeloid Leukemia cell line; assay: anticancer cell proliferation assay (WST-1); assay type: cell-based; conditions: Table 4; read-out: IC50 Acute Myeloid Leukemia cell lines THP-1
Protocol: as §1, with “Anticancer” for “Bioactivity of the above-described compounds has been verified by an anticancer cell proliferation assay using the WST-1 (4-[3-(4-iodophenyl)-2-(4-nitrophenyl)-2H-5-tetrazoliol-1, 3-benzene disulfonate) colorimetric assay by Roche Life Sciences®. Anticancer”

[4] = tested on: MOLM-14 Acute Myeloid Leukemia cell line; assay: anticancer cell proliferation assay (WST-1); assay type: cell-based; conditions: Table 4; read-out: IC50 Acute Myeloid Leukemia cell lines MOLM-14
Protocol: as §1, with “Anticancer” for “Bioactivity of the above-described compounds has been verified by an anticancer cell proliferation assay using the WST-1 (4-[3-(4-iodophenyl)-2-(4-nitrophenyl)-2H-5-tetrazoliol-1, 3-benzene disulfonate) colorimetric assay by Roche Life Sciences®. Anticancer”

[5] = target: T1, FLT3(D835Y) (Homo sapiens, UniProt P36888, D835Y); assay type: binding; conditions: Table 4; read-out: IC50 Kinases FLT3-D835Y
T1 construct: full-length constructs were used for small, single domain kinases, and catalytic domain constructs for large multi-domain kinases; T7 phage fusion (most assays) or DNA tag for qPCR (HEK-293-made kinases); made in house
Protocol: Cannabis flavonoids and their analogs were subjected to kinase inhibition assay. The compounds were first screened at a single concentration of 10 μM in the primary assay. […] To determine the kd or IC50 values, competition binding assays were established, authenticated and executed as described previously. […] See also, Karaman et al., “A Quantitative Analysis Of Kinase Inhibitor Selectivity”, Nat. Biotechnol. […] For most assays, kinases were fused to T7 phage strains (Fabian, supra) and for the other assays, kinases were produced in HEK-293 cells after which they were tagged with DNA for quantitative PCR detection. In general, full-length constructs were used for small, single domain kinases, and catalytic domain constructs for large multi-domain kinases. […] The liganded beads were blocked with excess biotin and washed with blocking buffer (SeaBlock (Pierce), 1% BSA, 0.05% Tween 20, 1 mM DTT) to remove unbound ligand and to reduce non-specific phage binding. […] All reactions were performed in polypropylene 384-well plates in a final volume of 0.04 ml. […] The kinase concentration in the eluates was measured by quantitative PCR. An illustration of the kinase interaction process is presented below. Kd/IC50 values were determined using a standard dose response curve using the hill equation. Curves were fitted using a non-linear least square fit with the Levenberg-Marquardt algorithm.

[6] = tested on: 60 cancer cell line panel; conditions: US National Cancer Institute 60 cancer cell line panel; cited from earlier work

Row | Structure (SMILES) | IC50 [1] | IC50 [2] | IC50 [3] | IC50 [4] | IC50 [5] | cytotoxicity against cancer cells [6]
1 | COc1ccc(-c2cc(=O)c3c(O)cc(O)cc3o2)cc1O [FBLGS-71] | > 100 µM | 3.26 µM | > 100 µM | 3.68 µM | – | –
2 | COc1ccc(-c2cc(=O)c3c(O)cc(O)cc3o2)cc1 [FBLGS-73] | > 100 µM | – | > 100 µM | – | 0.049 µM | –
3 | COc1cc(-c2cc(=O)c3c(O)c(CC=C(C)C)c(O)cc3o2)ccc1O [cannflavin B] | – | – | – | – | – | not cytotoxic
